Tests used:
Type in all cases: physicochemical
[1] = Evaluation of weight reduction rate (TG-DTA, held at 230° C.); conditions: heated to 230° C. at 20° C./min, kept 60 minutes
Method: As a reference, alumina was put in a quarts pan. Using differential thermogravimetric analyzer (TG-DTA) TG8120 (manufactured by Rigaku Corporation), they were heated to 230° C. at a heating rate of 20° C./min. From the time when they reached 230° C., they were kept at the same temperature for 60 minutes and then measured for the weight reduction rate. The weight reduction rate is calculated by the following formula and can be used as an indicator of heat resistance. Weight reduction rate=(“weight before heating”−“weight after heating”)/“weight before heating”×100(%) <Evaluation of Dyeing Property> (1) Fabric Dyeing

[2] = Evaluation of thermal decomposition temperature (TG-DTA); conditions: heating rate 5° C./min to 800° C., extrapolated temperature of TG curve peak
Method: As a reference, alumina was put in a quarts pan. Using horizontal differential thermogravimetric-differential thermal analyzer (TG-DTA) TG8120 (manufactured by Rigaku Corporation), they were measured at a heating rate of 5° C./min to 800° C. The extrapolated temperature of the peak of the thus-obtained TG curve was used as a decomposition point, and the temperature at the decomposition point was used as a thermal decomposition temperature. The thermal decomposition temperature can be used as an indicator of heat resistance.

[3] = Evaluation of color change in color materials (absorption spectrum in methanol); conditions: 10 mg in 100 mL methanol, diluted 20-fold, 1 cm cell, FIG. 1
Method: First, 10 mg of each of the color materials A and C obtained in Examples 1 and 3 was dissolved in 100 mL of methanol and diluted 20-fold, thereby obtaining a measurement solution. The absorption spectrum of the solution was measured by using a 1 cm quarts cell in spectrophotometer U-3500 manufactured by Hitachi, Ltd. Next, 10 mg of BB7 (monomer) was dissolved in 100 mL of methanol and diluted 20-fold, thereby obtaining a measurement solution as a control product. The absorption spectrum of the solution was measured by the same method as above.

SMILES	Weight reduction rate (230° C. for 1 hr) [1] [%]	Thermal decomposition temperature [2] [°C]	Color change versus BB7 (absorption spectrum peak form) [3]
CCN(CC)c1ccc(C(=C2C=CC(=[N+](CC)CC)C=C2)c2ccc(NCc3ccc(CNc4ccc(C(=C5C=CC(=[N+](CC)CC)C=C5)c5ccc(N(CC)CC)cc5)c5ccccc45)cc3)c3ccccc23)cc1.[Cl-].[Cl-] [Color material A]	−28.9	247	almost no change in color
CCN(CC)c1ccc(C(=C2C=CC(=[N+](CC)CC)C=C2)c2ccc(NCc3ccc(CNc4ccc(C(=C5C=CC(=[N+](CC)CC)C=C5)c5ccc(N(CC)CC)cc5)c5ccccc45)cc3)c3ccccc23)cc1 [Color material B]	−29.1	255	–
CCNc1ccc(C(=C2C=CC(=[N+](CC)CC)C=C2)c2ccc(N(CC)CC)cc2)c2ccccc12.[Cl-] [Color material D, Basic Blue 7 (CI-42595)]	−40.2	218	–
CCNc1ccc(C(=C2C=CC(=[N+](CC)CC)C=C2)c2ccc(N(CC)CC)cc2)c2ccccc12.Cc1ccc(S(=O)(=O)[O-])cc1 [Color material E]	−38.3	245	–
CCNc1ccc(C(=C2C=CC(=[N+](CC)CC)C=C2)c2ccc(N(CC)CC)cc2)c2ccccc12 [Color material F]	−33.8	236	–

— patent US9708244B2, “Coloring material and method for producing the same” (DAI NIPPON PRINTING CO., LTD., priority 2012, dated 2017)
